SMILES strings stand for the structures. “Also recorded” adds a separate entry of the source. Bounds are passed on as bounds.

For one data set, the system named is UGT1A1 mRNA. As to the kind of experiment: UGT1A1 mRNA level in human hepatocytes after 48 h treatment (RT-PCR). Particulars: human, IC50, suppression of UGT1A1 mRNA expression, 1.25–2500 nM.
Data set [1] is described as follows: MTS colorimetric cytotoxicity assay in human hepatocytes. Type of data set: cell-based. Particulars: human hepatocytes (lot 319), 48 h mertansine treatment (1.25–6250 nM), lot 319, MTS. On the procedure:
The hepatocytes were incubated with 0.0125, 0.0625, 0.125, 0.250, 0.625, 1.25, 2.5, and 6.25 μM mertansine in triplicate for 48 h at 37 °C in 5% CO2. The medium was exchanged with fresh medium containing mertansine every 24 h. Then, 20 μL of MTS solution was added to each well and the plate was incubated for 1 h at 37 °C in 5% CO2. The absorbance of the reaction mixture was measured at 492 nm.

For data set [2], the system named is CYP1A2 mRNA (suppression of expression). As to the kind of experiment: CYP1A2 mRNA level in human hepatocytes after 48 h treatment (RT-PCR). The class given is cell-based. Particulars: 1.25–2500 nM. The text has this:
(§1) 12.5 (Systat Software, Inc.; San Jose, CA, USA). […] 1.1 (Systat Software, Inc.).

In the next data set the test system is CYP2B6 mRNA. As to the kind of experiment: CYP2B6 mRNA level in human hepatocytes after 48 h treatment (RT-PCR). Type of data set: cell-based. Particulars: Mean ± SD of three human hepatocyte lots, 48 h, 1.25–2500 nM, read-out: IC50, suppression of CYP2B6 mRNA expression.
From the text: as §1

For data set [3], the system named is CYP2B6 mRNA (suppression of expression). The data set is described as above. As to conditions: 1.25–2500 nM. Type of data set: cell-based.
From the text: as §1

Another data set addresses T1, UGT2B7 (Homo sapiens, UniProt P16662).
T1 construct: ultrapooled human liver microsomes (0.2 mg/mL); from tissue; host or cells: human liver microsomes (ultrapooled)
As to the kind of experiment: Inhibition of UGT2B7-catalyzed naloxone 3-β-D-glucuronidation in ultrapooled human liver microsomes. The class given is in vitro ADME. On the procedure:
(§2) The inhibitory potential of mertansine on UGT1A1, UGT1A3, UGT1A4, UGT1A6, UGT1A9, and UGT2B7 activities was evaluated using liquid chromatography–tandem mass spectrometry (LC-MS/MS) with a cocktail of UGT substrates and ultrapooled human liver microsomes. Each incubation mixture was prepared to a final volume of 100 μL as follows: ultrapooled human liver microsomes (0.2 mg/mL), 5 mM UDPGA, 10 mM magnesium chloride, alamethicin (25 μg/mL), 50 mM Tris buffer (pH 7.4), various concentrations of mertansine in methanol (final concentrations of 0.01–50 μM), and the cocktail sets of UGT enzyme-specific substrates. Two cocktail sets were used: set A contained 0.5 μM SN-38 for UGT1A1, 2 μM chenodeoxycholic acid for UGT1A3, and 0.5 μM trifluoperazine for UGT1A4; and set B contained 1 μM N-acetylserotonin for UGT1A6, 0.2 μM mycophenolic acid for UGT1A9, and 1 μM naloxone for UGT2B7. The reactions were initiated by adding UDPGA and incubated in a shaking water bath for 60 min at 37 °C. Reactions were terminated by adding 50 μL of ice-cold acetonitrile containing internal standards (IS, propofol glucuronide for set A and meloxicam for set B). Incubation mixtures were centrifuged at 13,000 g for 8 min at 4 °C. Next, 50 μL of each supernatant of sets A and B was mixed, and aliquots (5 μL) were analyzed using LC-MS/MS. […]

The next data set concerns CYP2D6. Further details: method as in PMID 25048520, PMID 22752008. As to conditions: human liver microsomes, competitive; read-out: Ki, CYP2D6-mediated dextromethorphan O-demethylation; cited from earlier work.
The next data set deals with CYP2C19 mRNA. As to the kind of experiment: CYP2C19 mRNA level in human hepatocytes after 48 h treatment (RT-PCR). As to conditions: plated cryopreserved human hepatocytes, IC50, suppression of CYP2C19 mRNA expression, 1.25–2500 nM.
For a further data set, the target named is T2, UGT1A6 (Homo sapiens, UniProt P19224).
T2 construct: ultrapooled human liver microsomes (0.2 mg/mL); from tissue; host or cells: human liver microsomes (ultrapooled)
T2 sequence (P19224 27-532): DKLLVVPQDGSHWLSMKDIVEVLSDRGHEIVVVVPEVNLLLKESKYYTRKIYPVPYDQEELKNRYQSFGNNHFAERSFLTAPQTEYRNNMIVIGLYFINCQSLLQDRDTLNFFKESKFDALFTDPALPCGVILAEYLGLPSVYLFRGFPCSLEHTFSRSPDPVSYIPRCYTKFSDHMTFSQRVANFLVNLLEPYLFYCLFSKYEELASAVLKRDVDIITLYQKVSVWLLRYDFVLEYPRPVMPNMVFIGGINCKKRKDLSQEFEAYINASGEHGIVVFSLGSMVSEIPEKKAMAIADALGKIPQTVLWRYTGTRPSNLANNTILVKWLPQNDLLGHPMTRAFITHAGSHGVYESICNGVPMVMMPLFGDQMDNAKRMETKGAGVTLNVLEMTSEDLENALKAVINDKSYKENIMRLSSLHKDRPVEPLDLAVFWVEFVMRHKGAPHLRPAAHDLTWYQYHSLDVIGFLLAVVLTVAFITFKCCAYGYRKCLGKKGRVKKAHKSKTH
As to the kind of experiment: Inhibition of UGT1A6-catalyzed N-acetylserotonin β-D-glucuronidation in ultrapooled human liver microsomes. Type of data set: in vitro ADME. On the procedure: as §2

Details of data set [4]: method as in PMID 25048520, PMID 22752008. As to conditions: up to 1 µM; cited from earlier work.
Where [5] appears, read: Mean ± SD of three human hepatocyte lots, 48 h.
Setting [6] is: human hepatocytes Lot 319, 48 h.
Setting [7] is: human hepatocytes Lot 321, 48 h.
The mark [8] stands for this setting: human hepatocytes Lot 361, 48 h.
Where [9] appears, read: human liver microsomes, mertansine at 50 µM.

T1 sequence (P16662 24-529): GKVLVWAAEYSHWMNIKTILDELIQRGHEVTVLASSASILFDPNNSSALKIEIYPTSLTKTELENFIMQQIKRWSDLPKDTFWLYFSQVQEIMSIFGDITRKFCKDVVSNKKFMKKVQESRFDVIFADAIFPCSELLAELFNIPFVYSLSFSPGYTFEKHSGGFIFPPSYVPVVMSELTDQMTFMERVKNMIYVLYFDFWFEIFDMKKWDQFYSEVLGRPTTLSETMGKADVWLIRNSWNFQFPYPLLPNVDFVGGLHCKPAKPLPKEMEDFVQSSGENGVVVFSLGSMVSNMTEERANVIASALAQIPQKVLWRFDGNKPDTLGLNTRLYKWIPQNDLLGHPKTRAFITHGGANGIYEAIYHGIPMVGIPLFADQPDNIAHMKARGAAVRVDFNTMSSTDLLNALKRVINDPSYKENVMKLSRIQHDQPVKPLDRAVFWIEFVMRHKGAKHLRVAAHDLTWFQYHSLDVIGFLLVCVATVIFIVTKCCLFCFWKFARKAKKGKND

Regarding `COc1cc2cc(c1Cl)N(C)C(=O)CC(OC(=O)C(C)N(C)C(=O)CCS)C1(C)OC1C(C)C1CC(O)(NC(=O)O1)C(OC)C=CC=C(C)C2` (centres unmarked) [mertansine, Mertansine], the half-maximal inhibitory concentration (IC50) at 48 h is 857 ± 782 nM in the data set on UGT1A1 mRNA (setting [5]); 784 nM with UGT1A1 mRNA (setting [6]); 113 nM with UGT1A1 mRNA (setting [7]); 1670 nM with UGT1A1 mRNA (setting [8]); 93.7 ± 109 nM in data set [2] (setting [5]); 220 nM in [2] (setting [6]). The IC50 at 48 h is 34.3 nM in [2] (setting [7]); 27.3 nM in [2] (setting [8]); 36.8 ± 18.3 nM with CYP2B6 mRNA; 25 nM in data set [3] (setting [6]); 57.8 nM in [3] (setting [7]); 27.6 nM in data set [3] (setting [8]). The IC50 at 48 h came to 540 ± 233 nM in the data set with CYP2C19 mRNA (setting [5]), 574 nM in the data set with CYP2C19 mRNA (setting [6]), 754 nM with CYP2C19 mRNA (setting [7]) and 291 nM in the data set on CYP2C19 mRNA (setting [8]). The viability at 48 h in data set [1] was > 96.2%. The “Inhibition of UGT2B7 enzyme activity” value at UGT2B7 (setting [9]) is “no inhibition; also recorded: negligibly inhibited”. At UGT2B7 (ultrapooled human liver microsomes, 1 µM naloxone (cocktail)), the “IC50, naloxone 3-β-D-glucuronidation (UGT2B7)” value was “No inhibition”. The Ki in the data set with CYP2D6 is 14000 nM. Further, the “Inhibition of UGT1A6 enzyme activity” value at UGT1A6 (setting [9]) is “no inhibition; also recorded: negligibly inhibited”. In addition, on UGT1A6 (ultrapooled human liver microsomes, 1 µM N-acetylserotonin (cocktail)), the “IC50, N-acetylserotonin β-D-glucuronidation (UGT1A6)” value is on record as “No inhibition”. Also, the Induction potential result in [4] was “no induction potential”.

The values above are taken from article PMC7150891, “Mertansine Inhibits mRNA Expression and Enzyme Activities of Cytochrome P450s and Uridine 5′-Diphospho-Glucuronosyltransferases in Human Hepatocytes and Liver Microsomes” (Pharmaceutics, 2020).
